Source: PMC9130233, “An inhibitor of RORγ for chronic pulmonary obstructive disease treatment” (Scientific Reports, 2022)

Experiments:
[1] = system: IL-17 cytokine from rat splenocytes; assay: IL-17 inhibition, rat splenocytes; assay type: cell-based; details: Splenocyte, read-out: potency, rat IL-17 inhibition
human RORγt = target: T1, human RORγt (Homo sapiens, UniProt P51449); assay: RORγ transactivation assay in transfected HEK293 cells; assay type: cell-based; details: HEK293, n = 4; read-out: potency, inhibition of human RORγt in transactivation assay
T1 construct: Gal4-DBD human RORγt hinge LBD/pcDNA 3.1; expressed in transfected cells; host or cells: HEK293
Experimental: For RORg transactivation assay the HEK293 cells were seeded in 100 mm dish and transfected with 4.5 µg total DNA (2.25 µg of pGL4.31 Luc2/GAL4-UAS hygro and 2.25 µg Gal4-DBD human RORγt hinge LBD/pcDNA 3.1 and 0.112 µg of pRL-CMV using Effectene transfection reagent (Qiagen). After 16–20 h post transfection, cells were reseeded at the density of 0.05 M cells per well of 96 well plate in DMEM high glucose containing 2% charcoal stripped serum. 4–6 h post seeding, PCCR-1 treatment was given for 24 h, followed by cells lysis with 1X Passive Lysis buffer of Dual luciferase kit (Promega). The signal was detected after addition of stop and glo reagent of the kit in luminescence mode.

[2] = system: IL-17A release in human PBMC; assay: IL-17A release, human PBMC under Th17 polarization conditions; assay type: cell-based; details: human PBMC under Th17 polarization condition, n = 2; read-out: hIL-17 (IL-17A) IC50
Experimental: (§1) An increase in the levels of Th17 dependent cytokine in the peripheral blood of COPD patients as compared to the Th1 and Th2 dependent cytokines has been well documented in a subset of COPD patients. A comparative study was performed under TCR activating conditions to evaluate the potencies of PCCR-1 for inhibition across Th1, Th2 and Th17 dependent cytokines using hPBMCs.
(§2) Human whole blood from healthy subjects were procured from Clinical Research Unit, Sanpada. Clinical Research Center Glenmark (Plot No. D, 508, Turbhe, TTC Industrial Area, MIDC, Sanpada, Navi Mumbai, Maharashtra 400705, India). PBMCs were isolated using heparinized blood with Ficoll Histopaque. Briefly, the cells were seeded in 96-well plate pre-coated with human anti-CD3 mAb (10 µg/mL), post 30 min of compound treatment cells were stimulated with human anti-CD28 mAb (2 µg/mL). After 72 h of culture, the supernatant was collected for Th1/Th2 cytokines; IFN-γ, IL-2, IL-4 and IL-10 and measured by ELISA. For Th17 polarization assay, the following cytokine cocktail was used: IL-1β (10 ng/ml), IL-23(10 ng/ml), IL-6 (50 ng/ml), TGF-β1 (3 ng/ml), IL-2 (20U/ml) and supernatants were used for measuring IL-17 and IL-22 by ELISA.

IL-22 in hPBMCs = assay: IL-22 release, human PBMC, TCR activating conditions; assay type: cell-based; details: read-out: hIL-22 IC50
Experimental: as §1, §2

GABA Cl = assay: Cerep panel, GABA Cl
From the text: Based on the homology of the ligand binding domains, 3 different isoforms of ROR (hRORα, hRORβ and hRORγ) are reported. Small variations in the LBD regions possibly lead to differences in competitive binding between the nuclear receptors of the ROR isoforms (Fig. 1b). Similar to the assessment of RORγ binding assay, TR-FRET binding assays were also used to assess the affinity of PCCR-1 for other ROR isoforms. […] This was reconfirmed in cellular functional assays for the selected isoforms and nuclear receptors using Gal4 DBD with luciferase reporter system from Indigo (PA, USA). […] In addition, both cellular agonist and antagonist effects as well as for enzyme activity were evaluated with a known reference compound for each target, using a radiolabeled method (Eurofins Cerep, France, Table 1).

[3] = Single dose intranasal PK study in mice; assay type: in vivo, mouse
Experimental: A single dose intranasal PK study of PCCR-1 was conducted in male C57 mice at 20 and 50 µg/animal dose. The formulation was prepared in saline with 0.1% v/v tween-80 as the wetting agent. Animals were anesthetized briefly using gaseous isoflurane and oxygen mixture and a 40 µL of the formulation was instilled into both the nostrils (20 µL each) once the animal reached a regular breathing pattern and at pre-determined time points (0.25 h, 0.5 h, 1 h, 2 h, 4 h, 8 h and 24 h), approximately 0.3 mL of blood samples were collected using retro-orbital puncture in suitable anticoagulant (K3 EDTA). The animals were immediately sacrificed and lung was isolated. Blood samples were centrifuged (3000 rpm, 5 min) and plasma was harvested. Lung samples were homogenized in PBS buffer (pH 7.4) and centrifuged to collect the supernatant. Both plasma and lung samples were extracted using methyl t-butyl ether, mixed and centrifuged. The supernatant samples obtained after centrifugation were dried and reconstituted with acetonitrile-ammonium acetate buffer (90:10). The samples were mixed and analyzed in LCMS/MS for the analyte concentrations. Concentration vs time values were subjected to non-compartmental analysis using Phoenix WinNonlin® (Version 6.4) to estimate the appropriate pharmacokinetics parameters.

mouse RORγ = system: T2, mouse RORγ; assay: Dissociation assay, jump dilution method (TR-FRET), mouse; assay type: binding
T2 construct: RORγt-LBD region 264-516aa; made in house
Experimental: To understand the inverse agonist behavior at the molecular level, interaction with the nuclear receptor RORγ was analyzed in binding assays by estimating its dissociation constant (Koff) and half-life (t1/2). The binding of a ligand stabilizes the conformation of the LBD while binding of a cofactor modifies receptor activity. Binding reversibility was evaluated by adding an excess of competing ligand in the FRET assay and evaluating the displacement of the tracer with inhibitor. Binding of the PCCR-1 with the LBD caused reduction in FRET on antibody addition forming a GST (Glutathione S-transferases) tagged RORγ-antibody complex. The dissociation assay was performed using the jump dilution method with PCCR-1 at a concentration showing maximum binding potency or IC90. The dissociation was tested on addition of an excess of a competitive ligand, the tracer.

[4] = system: IL-17 release from COPD lung BALf cells; assay: IL-17 release, BALf cells from COPD patients; assay type: cell-based; details: Homo sapiens; TCR stimulated, n = 10; read-out: IL-17 IC50, COPD patient's sample: BAL
Experimental: Whole blood and BAL samples from COPD patients were obtained from Multispecialty hospital, Mumbai post approval from ethics committee and informed consent of patients. 30–40 mL Broncho alveolar lavage (BALf) was collected per patient and stored in ice. Blood was collected in heparin vaccutainer as per approved protocol. Both the samples were processed within 2 h of collection. BALF was passed through 100-µm and 40-µm cell strainer to remove debris and mucus, the samples were centrifuged and the cells were re-suspended in RPMI 1640 complete medium. PBMCs from blood were isolated using Histopaque-1077 by density gradient centrifugation. Isolated BAL cells and PBMCs were seeded in 96 well coated with 10 µg/ml anti-CD3 and 2 µg/ml anti-CD2. Cells were further treated with different concentration of test compound for 60 min followed by stimulation with 20 µg/ml anti-CD28 and incubated for 48–72 h. The supernatant was used for estimating IL-17 by ELISA.

T1 sequence (P51449 97-518): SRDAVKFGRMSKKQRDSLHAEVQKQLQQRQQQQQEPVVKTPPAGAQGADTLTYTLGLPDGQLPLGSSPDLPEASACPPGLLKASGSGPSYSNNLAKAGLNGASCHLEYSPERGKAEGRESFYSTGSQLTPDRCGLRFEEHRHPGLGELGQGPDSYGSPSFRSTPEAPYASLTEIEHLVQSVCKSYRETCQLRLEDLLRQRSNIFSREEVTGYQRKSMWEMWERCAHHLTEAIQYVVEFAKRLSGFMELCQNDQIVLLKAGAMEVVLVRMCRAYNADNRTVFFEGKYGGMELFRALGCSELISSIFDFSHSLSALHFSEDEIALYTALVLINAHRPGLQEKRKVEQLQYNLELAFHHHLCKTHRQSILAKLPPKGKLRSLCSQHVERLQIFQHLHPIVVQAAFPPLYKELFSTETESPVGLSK

CCn1c(C(C)(C)Oc2ccc(F)cc2F)nc2cc(NC(=O)Cc3ccc(S(=O)(=O)CC)cc3)ccc21 [PCCR-1] showed an IC50 [1] of 80.6 nM, an IC50 (human RORγt) of 111 nM and an IC50 [2] of 66.5 nM. For the same compound, the IC50 (IL-22 in hPBMCs) was 297 nM, the IC50 (GABA Cl) was 4800 nM and the “quantifiable levels in lungs, time post dose” value [3] was “up to 24 h”. The “mean lung to plasma AUClast ratio” value ([3]; both doses (20 and 50 µg)) was over 1000, the “time of peak lung concentrations post dose” value ([3]; both doses (20 and 50 µg)) was 2 to 4 h and the Kp ([3]; male, C57, mouse, lung/plasma, inhaled or intranasal, 50 ug, both doses (20 and 50 µg), read-out: mean lung to plasma Cmax ratio) was over 1000. The “dissociation from the target protein” value (mouse RORγ; mouse RORγ, jump dilution) was 20–25%, the “t1/2 (target residence time)” value (mouse RORγ; mouse RORγ, jump dilution, PCCR-1 at IC90) was 4.69 h and the absolute dissociation (mouse RORγ; mouse, till 3 h of measurement) was 50%. The IC50 [4] was 522 nM.
